Experimental data taken from patent US12084472B2 (Ardelyx, Inc., priority 2015, dated 2024).

Target: T1, human TGR5 (Homo sapiens, UniProt Q8TDU6)
T1 construct: expressed in transfected cells; host or cells: HEK293
T1 sequence (Q8TDU6 1-330): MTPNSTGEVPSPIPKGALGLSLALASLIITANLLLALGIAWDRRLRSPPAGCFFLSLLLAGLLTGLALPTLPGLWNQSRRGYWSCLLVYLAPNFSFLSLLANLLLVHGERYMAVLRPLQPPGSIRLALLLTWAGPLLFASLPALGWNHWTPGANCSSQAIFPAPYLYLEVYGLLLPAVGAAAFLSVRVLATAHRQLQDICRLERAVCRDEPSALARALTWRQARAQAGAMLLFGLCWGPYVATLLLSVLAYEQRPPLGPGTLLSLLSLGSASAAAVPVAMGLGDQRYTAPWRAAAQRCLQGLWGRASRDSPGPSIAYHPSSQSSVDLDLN
Experiment: Cell-based TGR5 assay (cAMP generation, HTRF)
Conditions: HEK293 cells stably transfected with human TGR5; cAMP by HTRF; 30 minutes at 37° C.; read-out: pEC50 Human TGR5 (converted)
In short: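 Read-out was HTRF detection of cAMP, converted to concentration via a standard curve and fitted (3-parameter logistic) for pEC50 and maximal response. Agonist stimulation used HEK293 cells stably transfected with human TGR5, incubated 30 min at 37° C in IBMX-containing buffer at 0.05 nM to 10 μM compound.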

| Compound | EC50 |
| --- | --- |
| O=C(NCCCSc1ccc(Cl)c(CNC2(c3cnccc3-c3ccccc3OC3CC3)CC2)c1)NC[C@H](O)[C@@H](O)[C@H](O)[C@H](O)CO [Compound I-622, 1-[3-({4-chloro-3-[({1-[4-(2-cyclopropoxyphenyl)pyridin-3-yl]cyclopropyl}amino)methyl]phenyl}sulfanyl)propyl]-3-[(2S,3R,4R,5R)-2,3,4,5,6-pentahydroxyhexyl]urea] | < 100 nM |
| O=C1NCCN1CCN(CCCCSc1ccc(Cl)c(CNC2(c3cnccc3-c3ccccc3OC3CC3)CC2)c1)C(=O)[C@@H](O)[C@@H](O)[C@H](O)[C@@H](O)CO [Compound I-624, (2S,3S,4R,5S)-N-[4-({4-chloro-3-[({1-[4-(2-cyclopropoxyphenyl)pyridin-3-yl]cyclopropyl}amino)methyl]phenyl}sulfanyl)butyl]-2,3,4,5,6-pentahydroxy-N-[2-(2-oxoimidazolidin-1-yl)ethyl]hexanamide] | 126 to 1000 nM |
| O=C(NCCOCCSc1ccc(Cl)c(CNC2(c3cnccc3-c3ccccc3OC3CC3)CC2)c1)NC[C@H](O)[C@@H](O)[C@H](O)[C@H](O)CO [Compound I-626, 1-{2-[2-({4-chloro-3-[({1-[4-(2-cyclopropoxyphenyl)pyridin-3-yl]cyclopropyl}amino)methyl]phenyl}sulfanyl)ethoxy]ethyl}-3-[(2S,3R,4R,5R)-2,3,4,5,6-pentahydroxyhexyl]urea] | < 100 nM |
| O=C(NCCCCCSc1ccc(Cl)c(COC2(c3cnccc3-c3ccccc3OC3CC3)CC2)c1)N[C@@H](CO)[C@@H](O)[C@H](O)[C@H](O)CO [Compound I-636, 1-(5-{[4-chloro-3-({1-[4-(2-cyclopropoxyphenyl)pyridin-3-yl]cyclopropoxy}methyl)phenyl]sulfanyl}pentyl)-3-[(2S,3R,4S,5R)-1,3,4,5,6-pentahydroxyhexan-2-yl]urea] | < 100 nM |
| O=C(NCCOCCSc1ccc(Cl)c(COC2(c3cnccc3-c3ccccc3OC3CC3)CC2)c1)N[C@@H](CO)[C@@H](O)[C@H](O)[C@H](O)CO [Compound I-637, 1-[2-(2-{[4-chloro-3-({1-[4-(2-cyclopropoxyphenyl)pyridin-3-yl]cyclopropoxy}methyl)phenyl]sulfanyl}ethoxy)ethyl]-3-[(2S,3R,4S,5R)-1,3,4,5,6-pentahydroxyhexan-2-yl]urea] | < 100 nM |
| O=C(NCCCCNC(=O)NCCOCCSc1ccc(Cl)c(COC2(c3cnccc3-c3ccccc3OC3CC3)CC2)c1)NCCOCCSc1ccc(Cl)c(COC2(c3cnccc3-c3ccccc3OC3CC3)CC2)c1 [Compound I-638, 3-[2-(2-{[4-chloro-3-({1-[4-(2-cyclopropoxyphenyl)pyridin-3-yl]cyclopropoxy}methyl)phenyl]sulfanyl}ethoxy)ethyl]-1-[4-({[2-(2-{[4-chloro-3-({1-[4-(2-cyclopropoxyphenyl)pyridin-3-yl]cyclopropoxy}methyl)phenyl]sulfanyl}ethoxy)ethyl]carbamoyl}amino)butyl]urea] | 126 to 1000 nM |
| O=C(NCCCCC[S+]([O-])c1ccc(Cl)c(COC2(c3cnccc3-c3ccccc3OC3CC3)CC2)c1)NC[C@H](O)[C@@H](O)[C@H](O)[C@H](O)CO (stereo partly drawn) [Compound I-639, 1-{5-[4-chloro-3-({1-[4-(2-cyclopropoxyphenyl)pyridin-3-yl]cyclopropoxy}methyl)benzenesulfinyl]pentyl}-3-[(2S,3R,4R,5R)-2,3,4,5,6-pentahydroxyhexyl]urea] | < 100 nM |
| O=C(NCCCCCS(=O)(=O)c1ccc(Cl)c(COC2(c3cnccc3-c3ccccc3OC3CC3)CC2)c1)NC[C@H](O)[C@@H](O)[C@H](O)[C@H](O)CO [Compound I-640, 1-{5-[4-chloro-3-({1-[4-(2-cyclopropoxyphenyl)pyridin-3-yl]cyclopropoxy}methyl)benzenesulfonyl]pentyl}-3-[(2S,3R,4R,5R)-2,3,4,5,6-pentahydroxyhexyl]urea] | < 100 nM |
| O=C(NCCOCCS(=O)(=O)c1ccc(Cl)c(COC2(c3cnccc3-c3ccccc3OC3CC3)CC2)c1)N[C@@H](CO)[C@@H](O)[C@H](O)[C@H](O)CO [Compound I-641, 1-(2-{2-[4-chloro-3-({1-[4-(2-cyclopropoxyphenyl)pyridin-3-yl]cyclopropoxy}methyl)benzenesulfonyl]ethoxy}ethyl)-3-[(2S,3R,4S,5R)-1,3,4,5,6-pentahydroxyhexan-2-yl]urea] | < 100 nM |

Next, values leading:

| EC50 | Compound |
| --- | --- |
| < 100 nM | O=C(NCCCCSc1ccc(Cl)c(CNC2(c3cnccc3-c3ccccc3OC3CC3)CC2)c1)NC[C@H](O)[C@@H](O)[C@H](O)[C@H](O)CO [Compound I-623, 1-[4-({4-chloro-3-[({1-[4-(2-cyclopropoxyphenyl)pyridin-3-yl]cyclopropyl}amino)methyl]phenyl}sulfanyl)butyl]-3-[(2S,3R,4R,5R)-2,3,4,5,6-pentahydroxyhexyl]urea] |
| < 100 nM | O=C(NCCCSc1ccc(Cl)c(COC2(c3cnccc3-c3ccccc3OC3CC3)CC2)c1)NC[C@H](O)[C@@H](O)[C@H](O)[C@H](O)CO [Compound I-625, 1-(3-{[4-chloro-3-({1-[4-(2-cyclopropoxyphenyl)pyridin-3-yl]cyclopropoxy}methyl)phenyl]sulfanyl}propyl)-3-[(2S,3R,4R,5R)-2,3,4,5,6-pentahydroxyhexyl]urea] |
| < 100 nM | O=C(NCCCCCSc1ccc(Cl)c(COC2(c3cnccc3-c3ccccc3OC3CC3)CC2)c1)NCCCCNC(=O)NC[C@H](O)[C@@H](O)[C@H](O)[C@H](O)CO [Compound I-627] |
| < 100 nM | O=C(NCCCCSc1ccc(Cl)c(COC2(c3cnccc3-c3ccccc3OC3CC3)CC2)c1)N[C@@H](CO)[C@@H](O)[C@H](O)[C@H](O)CO [Compound I-628, 1-(4-{[4-chloro-3-({1-[4-(2-cyclopropoxyphenyl)pyridin-3-yl]cyclopropoxy}methyl)phenyl]sulfanyl}butyl)-3-[(2S,3R,4S,5R)-1,3,4,5,6-pentahydroxyhexan-2-yl]urea] |
| < 100 nM | O=C(NCCCCNC(=O)NC[C@H](O)[C@@H](O)[C@H](O)[C@H](O)CO)NCCCCSc1ccc(Cl)c(COC2(c3cnccc3-c3ccccc3OC3CC3)CC2)c1 [Compound I-629, 1-(4-{[(4-{[4-chloro-3-({1-[4-(2-cyclopropoxyphenyl)pyridin-3-yl]cyclopropoxy}methyl)phenyl]sulfanyl}butyl)carbamoyl]amino}butyl)-3-[(2S,3R,4R,5R)-2,3,4,5,6-pentahydroxyhexyl]urea] |
| < 100 nM | O=C(NCCCCCSc1ccc(Cl)c(COC2(c3cnccc3-c3ccccc3OC3CC3)CC2)c1)N[C@H]1CC[C@H](NC(=O)NC[C@H](O)[C@@H](O)[C@H](O)[C@H](O)CO)CC1 [Compound I-630, 1-(5-{[4-chloro-3-({1-[4-(2-cyclopropoxyphenyl)pyridin-3-yl]cyclopropoxy}methyl)phenyl]sulfanyl}pentyl)-3-[(1r,4r)-4-({[(2S,3R,4R,5R)-2,3,4,5,6-pentahydroxyhexyl]carbamoyl}amino)cyclohexyl]urea] |
| < 100 nM | O=C(CN1CCC(NC(=O)NCCCCCSc2ccc(Cl)c(COC3(c4cnccc4-c4ccccc4OC4CC4)CC3)c2)CC1)NC[C@H](O)[C@@H](O)[C@H](O)[C@H](O)CO [Compound I-631, 2-(4-{[(5-{[4-chloro-3-({1-[4-(2-cyclopropoxyphenyl)pyridin-3-yl]cyclopropoxy}methyl)phenyl]sulfanyl}pentyl)carbamoyl]amino}piperidin-1-yl)-N-[(2S,3R,4R,5R)-2,3,4,5,6-pentahydroxyhexyl]acetamide] |
| < 100 nM | O=C(NCCCCSc1ccc(Cl)c(COC2(c3cnccc3-c3ccccc3OC3CC3)CC2)c1)N[C@H]1CC[C@H](NC(=O)NC[C@H](O)[C@@H](O)[C@H](O)[C@H](O)CO)CC1 [Compound I-632, 1-(4-{[4-chloro-3-({1-[4-(2-cyclopropoxyphenyl)pyridin-3-yl]cyclopropoxy}methyl)phenyl]sulfanyl}butyl)-3-[(1r,4r)-4-({[(2S,3R,4R,5R)-2,3,4,5,6-pentahydroxyhexyl]carbamoyl}amino)cyclohexyl]urea] |
| < 100 nM | O=C(CN1CCC(NC(=O)NCCCCSc2ccc(Cl)c(COC3(c4cnccc4-c4ccccc4OC4CC4)CC3)c2)CC1)NC[C@H](O)[C@@H](O)[C@H](O)[C@H](O)CO [Compound I-633, 2-(4-{[(4-{[4-chloro-3-({1-[4-(2-cyclopropoxyphenyl)pyridin-3-yl]cyclopropoxy}methyl)phenyl]sulfanyl}butyl)carbamoyl]amino}piperidin-1-yl)-N-[(2S,3R,4R,5R)-2,3,4,5,6-pentahydroxyhexyl]acetamide] |
| < 100 nM | O=C(NCCCCCSc1ccc(Cl)c(COC2(c3cnccc3-c3ccccc3OC3CC3)CC2)c1)N[C@H]1CC[C@@H](NC(=O)NC[C@H](O)[C@@H](O)[C@H](O)[C@H](O)CO)CC1 [Compound I-634, 1-(5-{[4-chloro-3-({1-[4-(2-cyclopropoxyphenyl)pyridin-3-yl]cyclopropoxy}methyl)phenyl]sulfanyl}pentyl)-3-[(1s,4s)-4-({[(2S,3R,4R,5R)-2,3,4,5,6-pentahydroxyhexyl]carbamoyl}amino)cyclohexyl]urea] |
| < 100 nM | O=C(NCCCCSc1ccc(Cl)c(COC2(c3cnccc3-c3ccccc3OC3CC3)CC2)c1)N[C@H]1CC[C@@H](NC(=O)NC[C@H](O)[C@@H](O)[C@H](O)[C@H](O)CO)CC1 [Compound I-635, 1-(4-{[4-chloro-3-({1-[4-(2-cyclopropoxyphenyl)pyridin-3-yl]cyclopropoxy}methyl)phenyl]sulfanyl}butyl)-3-[(1s,4s)-4-({[(2S,3R,4R,5R)-2,3,4,5,6-pentahydroxyhexyl]carbamoyl}amino)cyclohexyl]urea] |
